# Data reported in patent US4564627A, “Feed composition” (Nihon Nohyaku Co., Ltd., priority 1982, dated 1986).
# “Also recorded” adds a separate entry of the source.
# Tests used:
# LD50 mouse (male) = details: in vivo
# Description: Examples of the compounds represented by the general formula [1] according to this invention and their toxicities are shown below.
# [1] = Growth of body weight of broilers (Test Example 1); assay type: in vivo, "A A Fuji" broilers (chicken); details: for Body weight at week age 0: week age 0 (before addition); for Body weight at week age 3: week age 3 (start of addition)
# Experimental: (§1) To each group consisting of 30 "A A Fuji" broilers (15 male, 15 female), a commercially available early period broiler feed (crumble form, Cp 22%, ME 3,030 kcal/kg) was given from beginning of feeding to 4 week age, and a latter period broiler feed (mash form, Cp 18%, ME 3,030 kcal/kg) was given ad libitum from 4 week age to 10 week age. The test period was from Oct. 10, 1981 through Dec. 20, 1981. Addition of test compounds to the above feeds in predetermined concentrations was conducted from 3 week age through the completion of the test.
# (1) Growth of body weight
# […] All broilers were measured and an average body weight was calculated for each group.
# [2] = Feed consumption of broilers (Test Example 1); assay type: in vivo, "A A Fuji" broilers (chicken); details: 2,400 ppm in feed
# Experimental: as §1
# Feed consumption was calculated by weighing feeds left at the time of body weight measurement, and therefrom feed conversion ratio was calculated.
# broilers [3] = assay: Abdominal fat deposit of broilers (Test Example 1); assay type: in vivo, "A A Fuji" broilers (chicken)
# Experimental: as §1
# (§2) Five broilers at 6 week age, five broilers at 8 week age and ten broilers at 10 week age were taken out from each group and slaughtered. Immediately after slaughtering, they were cooled in water for about 2 hr and the body weight of each slaughtered broiler was measured and subsequently they were stored at 2° C. for about 20 hr. Then, in order to measure abdominal fat, mesentary fat was removed and fat adhered to from gizzard to proventriculus was collected and weighed as the weight of abdominal fat. This weight was divided by body weight to obtain abdominal fat deposit per 100 g of body weight. Further, liver fat was also collected and weighed. A liver under freeze storage was cut into slices in a total quantity of 2 to 3 g. The slices were placed in a cylindrical filter paper and weighed. Then, these slices were dried for 3 hr in a hot air drier kept at 90° C. and subsequently extracted for 17 hr with ethyl ether in a Soxhlet fat extractor. After drying the extract for 3 hr at 60° C. and weighing the residue, crude fat content in liver was calculated.
# broilers [4] = assay: Crude fat content in liver of broilers (Test Example 1); assay type: in vivo, "A A Fuji" broilers (chicken)
# Experimental: as §1, §2
# laying hens [5] = assay: Thickness of eggshell of laying hens (Test Example 2); assay type: in vivo
# Description: (§3) As test hens, commercially available laying hens of 480 day age were used. The control group fed with a feed not containing any compound of this invention consisted of 100 laying hens, and each test group fed with a feed containing a compound of this invention consisted of 10 laying hens. The test was repeated twice. The test period was 16 weeks from Nov. 17, 1981 to Mar. 8, 1982. The first 4 weeks from the start was a preliminary observation period, during which each group was controlled so as to give the same egg production rate. As the feed, a commercially available feed for laying hens (Cp 16% or above, ME 2,800 kcal/kg or above) was used. From the 5th week, predetermined quantities of test compounds were uniformly added to this feed and the resulting blended feeds were given to test groups. Feeds and water were given ad libitum. Constant lighting was made for 14 hr a day. Egg production rate was daily recorded for each individual hen and egg weight for each test group. Feed intake quantity was obtained by calculating on every other week a difference between quantity fed and quantity left. For examining egg quality, strength of eggshell and thickness of eggshell were measured for all normal eggs laid during a period of the previous day of measurement to 3 P.M. of the measurement day. Strength of eggshell was measured by a FHK eggshell strength tester model FN-597, and thickness of eggshell by a dial thickness gauge.
# laying hens [6] = assay: Strength of eggshell of laying hens (Test Example 2); assay type: in vivo
# Description: as §3
# [7] = Feed intake of laying hens (Test Example 2); assay type: in vivo; details: 2,500 ppm in feed
# Description: as §3, with “Constant lighting was made for 14 hr a day.” left out
compound,measurement,setting,value
CC(C)OC(=O)C(C(=O)OC(C)C)=C1SC(C(=O)O)S1 (stereo not shown),LD50,LD50 mouse (male),> 5000 mg/kg
CC(C)OC(=O)C(C(=O)OC(C)C)=C1SCS1 [compound 1],LD50,LD50 mouse (male),> 5000 mg/kg
CCOC(=O)C(C(=O)OC(C)C)=C1SCS1 [compound 2],LD50,LD50 mouse (male),> 5000 mg/kg
CC(C)OC(=O)C(C(=O)OC(C)C)=C1SC=CS1 [compound 4],LD50,LD50 mouse (male); unit printed kg/mg,3120 mg/kg
same,Growth of body weight (in words),"[1]; broilers, 2,400 ppm in feed",badly affected; also recorded: lower growth of body weight
same,Body weight at week age 0,[1]; 200 ppm in feed from 3 week age,41 g
same,Body weight at week age 0,[1]; 400 ppm in feed from 3 week age,41 g
same,Body weight at week age 0,[1]; 800 ppm in feed from 3 week age,41 g
same,Body weight at week age 0,"[1]; 2,400 ppm in feed from 3 week age",41 g
same,Body weight at week age 3,[1]; 200 ppm in feed,620 g
same,Body weight at week age 3,[1]; 400 ppm in feed,626 g
same,Body weight at week age 3,[1]; 800 ppm in feed,625 g
same,Body weight at week age 3,"[1]; 2,400 ppm in feed",621 g
same,Body weight at week age 4,[1]; 200 ppm in feed,981 g
same,Body weight at week age 4,[1]; 400 ppm in feed,985 g
same,Body weight at week age 4,[1]; 800 ppm in feed,984 g
same,Body weight at week age 4,"[1]; 2,400 ppm in feed",974 g
same,Body weight at week age 5,[1]; 200 ppm in feed,"1,341 g"
same,Body weight at week age 5,[1]; 400 ppm in feed,"1,346 g"
same,Body weight at week age 5,[1]; 800 ppm in feed,"1,330 g"
same,Body weight at week age 5,"[1]; 2,400 ppm in feed","1,316 g"
same,Body weight at week age 6,[1]; 200 ppm in feed,"1,661 g"
same,Body weight at week age 6,[1]; 400 ppm in feed,"1,667 g"
same,Body weight at week age 6,[1]; 800 ppm in feed,"1,662 g"
same,Body weight at week age 6,"[1]; 2,400 ppm in feed","1,640 g"
same,Body weight at week age 7,[1]; 200 ppm in feed,"2,090 g"
same,Body weight at week age 7,[1]; 400 ppm in feed,"2,102 g"
same,Body weight at week age 7,[1]; 800 ppm in feed,"2,065 g"
same,Body weight at week age 7,"[1]; 2,400 ppm in feed","2,003 g"
same,Body weight at week age 8,[1]; 200 ppm in feed,"2,502 g"
same,Body weight at week age 8,[1]; 400 ppm in feed,"2,512 g"
same,Body weight at week age 8,[1]; 800 ppm in feed,"2,496 g"
same,Body weight at week age 8,"[1]; 2,400 ppm in feed","2,388 g"
same,Body weight at week age 9,[1]; 200 ppm in feed,"2,860 g"
same,Body weight at week age 9,[1]; 400 ppm in feed,"2,874 g"
same,Body weight at week age 9,[1]; 800 ppm in feed,"2,871 g"
same,Body weight at week age 9,"[1]; 2,400 ppm in feed","2,796 g"
same,Body weight at week age 10,[1]; 200 ppm in feed,"3,105 g"
same,Body weight at week age 10,[1]; 400 ppm in feed,"3,115 g"
same,Body weight at week age 10,[1]; 800 ppm in feed,"3,098 g"
same,Body weight at week age 10,"[1]; 2,400 ppm in feed","2,984 g"
same,Feed consumption (in words),[2],significant reduction of feed consumption
same,Abdominal fat deposit,"broilers [3]; 6w, 200 ppm in feed",3.20 g/100 g
same,Abdominal fat deposit,"broilers [3]; 6w, 400 ppm in feed",3.02 g/100 g
same,Abdominal fat deposit,"broilers [3]; 6w, 800 ppm in feed",2.93 g/100 g
same,Abdominal fat deposit,"broilers [3]; 6w, 2,400 ppm in feed",2.92 g/100 g
same,Abdominal fat deposit,"broilers [3]; 8w, 200 ppm in feed",3.55 g/100 g
same,Abdominal fat deposit,"broilers [3]; 8w, 400 ppm in feed",3.18 g/100 g
same,Abdominal fat deposit,"broilers [3]; 8w, 800 ppm in feed",3.22 g/100 g
same,Abdominal fat deposit,"broilers [3]; 8w, 2,400 ppm in feed",3.15 g/100 g
same,Abdominal fat deposit,"broilers [3]; 10w, 200 ppm in feed",3.83 g/100 g
same,Abdominal fat deposit,"broilers [3]; 10w, 400 ppm in feed",3.78 g/100 g
same,Abdominal fat deposit,"broilers [3]; 10w, 800 ppm in feed",3.37 g/100 g
same,Abdominal fat deposit,"broilers [3]; 10w, 2,400 ppm in feed",3.22 g/100 g
same,Crude fat content in liver,"broilers [4]; 6w, 200 ppm in feed",2.20%
same,Crude fat content in liver,"broilers [4]; 6w, 400 ppm in feed",2.06%
same,Crude fat content in liver,"broilers [4]; 6w, 800 ppm in feed",2.17%
same,Crude fat content in liver,"broilers [4]; 6w, 2,400 ppm in feed",2.11%
same,Crude fat content in liver,"broilers [4]; 8w, 200 ppm in feed",5.23%
same,Crude fat content in liver,"broilers [4]; 8w, 400 ppm in feed",5.02%
same,Crude fat content in liver,"broilers [4]; 8w, 800 ppm in feed",4.62%
same,Crude fat content in liver,"broilers [4]; 8w, 2,400 ppm in feed",4.04%
same,Crude fat content in liver,"broilers [4]; 10w, 200 ppm in feed",4.47%
same,Crude fat content in liver,"broilers [4]; 10w, 400 ppm in feed",4.29%
same,Crude fat content in liver,"broilers [4]; 10w, 800 ppm in feed",4.25%
same,Crude fat content in liver,"broilers [4]; 10w, 2,400 ppm in feed",3.96%
same,Eggshell thickness,"laying hens [5]; 509th day, 100 ppm in feed",0.345 mm
same,Eggshell thickness,"laying hens [5]; 509th day, 500 ppm in feed",0.342 mm
same,Eggshell thickness,"laying hens [5]; 509th day, 2,500 ppm in feed",0.336 mm
same,Eggshell thickness,"laying hens [5]; 555th day, 100 ppm in feed",0.343 mm
same,Eggshell thickness,"laying hens [5]; 555th day, 500 ppm in feed",0.350 mm
same,Eggshell thickness,"laying hens [5]; 555th day, 2,500 ppm in feed",0.347 mm
same,Eggshell thickness,"laying hens [5]; 612th day, 100 ppm in feed",0.342 mm
same,Eggshell thickness,"laying hens [5]; 612th day, 500 ppm in feed",0.345 mm
same,Eggshell thickness,"laying hens [5]; 612th day, 2,500 ppm in feed",0.344 mm
same,Eggshell strength,"laying hens [6]; 509th day, 100 ppm in feed",2.47 kg
same,Eggshell strength,"laying hens [6]; 509th day, 500 ppm in feed",2.46 kg
same,Eggshell strength,"laying hens [6]; 509th day, 2,500 ppm in feed",2.44 kg
same,Eggshell strength,"laying hens [6]; 555th day, 100 ppm in feed",2.88 kg
same,Eggshell strength,"laying hens [6]; 555th day, 500 ppm in feed",2.93 kg
same,Eggshell strength,"laying hens [6]; 555th day, 2,500 ppm in feed",2.97 kg
same,Eggshell strength,"laying hens [6]; 612th day, 100 ppm in feed",2.97 kg
same,Eggshell strength,"laying hens [6]; 612th day, 500 ppm in feed",3.02 kg
same,Eggshell strength,"laying hens [6]; 612th day, 2,500 ppm in feed",3.08 kg
same,Feed intake (in words),[7],a lower value was seen with significance
CCOC(=O)C(C(=O)OCC)=C1SC=CS1 [compound 5],LD50,LD50 mouse (male),4900 mg/kg
CC(C)OC(=O)C(C(=O)OC(C)C)=C1SCC[S+]1[O-] (stereo not shown) [compound 7],LD50,LD50 mouse (male),> 6000 mg/kg
CC(C)OC(=O)C(C(=O)OC(C)C)=C1SCC(O)S1 (stereo not shown) [compound 8],LD50,LD50 mouse (male),> 6590 mg/kg
